Source: patent publication US20220265629A1, “TREATMENT OF SYSTOLIC DYSFUNCTION AND HEART FAILURE WITH REDUCED EJECTION FRACTION WITH THE COMPOUND (R)-4-(1-((3-(DIFLUOROMETHYL)-1-METHYL-1H-PYRAZOL-4-YL)SULFONYL)-1-FLUOROETHYL)-N-(ISOXAZOL-3-YL)PIPERIDINE-1-CARBOXAMIDE” (MyoKardia, Inc., priority 2019, published 2022)
Where two headings read alike, the source gives them in different places.

Assay: Single ascending oral dose study in healthy volunteers: plasma pharmacokinetics
Format: in vivo, human
Settings: human, plasma, oral; for concentration at 48 h: 48 Hours Postdose; for concentration at 72 h: 72 Hours Postdose; for concentration at 6 h: 6 Hours Postdose; for concentration at 12 h: 12 Hours Postdose; for concentration at 24 h: 24 Hours Postdose
From the text: This example describes the first-in-human study of Compound I. Based on its mechanism of action, Compound I may offer a targeted therapy for patients with DCM caused by genetic or nongenetic mechanisms. The study was a randomized, double-blind, placebo-controlled, sequential group, single-ascending (oral) close study in healthy subjects aged 18-55 years. Eight dosing cohorts, each comprising eight healthy subjects, were enrolled. Within each cohort, subjects were randomized 6:2 to Compound I:placebo.
Subjects were resident at the clinical site for up to 5 days and 4 nights, from Day −1 (the day before dosing) to Day 4, and received a single dose of Compound I or placebo on Day 1. ECG telemetry was initiated 1 hour preclose and continued through 48 hours postclose (Day 3). Any subject with a preclose resting HR≥80 beats per minute was considered ineligible and not treated. […] Subjects returned for a safety follow-up visit 7 days (±1 day) after dosing.
All randomized study subjects received either Compound I or matching placebo as a single oral dose after a fasting period of at least 6 hours. Compound I drug substance is a crystalline, free-base, synthetic molecule with a molecular weight of 435.4 g/mol.
Compound I was provided as a powder for oral suspension. Placebo was provided as calcium carbonate powder. Both treatments were closed orally as a suspension. The suspension was made using Ora-Plus® suspending vehicle (Perrigo) and a cherry syrup flavoring vehicle (Humco), mixed 50% to 50%. The suspension was followed by approximately 100 mL water. The suspension was made up within 14 days from the time in which it was closed which was consistent with the stability data on the suspension. The suspension was made up so the volume administered to the subjects who received Compound I was the same at 20 mL.
Each subject received a close according to the cohort in which they were enrolled. Cohorts were enrolled sequentially, with each cohort receiving an escalated dose of Compound I. The closes administered were 3 mg, 10 mg, 25 mg, 50 mg, 100 mg, 175 mg, 350 mg, and 525 mg, respectively.
The concentrations of Compound I in human plasma and urine were quantitated by high performance liquid chromatography with tandem mass spectrometric detection (LC MS/MS) (Biological sample analysis study report Alturas AD17-726). Plasma samples were extracted by protein precipitation with acetonitrile containing internal standard MYK-5654. The calibration curves were linear over concentration range of 0.500 to 1000 ng/mL with a lower limit of quantification (LLOQ) of 0.500 ng/mL.
The PK Population included all subjects who received Compound I. Blood samples were collected for PK assessments. The actual timing of the samples may have been modified and/or up to an additional 2 samples may have been requested by the SRC after review of the data from previous cohorts. It was important that PK sampling occurred as closely as possible to the scheduled time (±10%). Both blood and urine samples were used for PK assessments.
In addition, for subjects who received placebo, a single plasma sample near the predicted tmax of Compound I was evaluated to confirm the lack of circulating Compound I. Plasma concentration data for Compound I was summarized using descriptive statistics, including mean, standard deviation (SD), median, minimum, and maximum values, and percent coefficient of variation. Other PK parameters included (but were not limited to) Cmax, tmax, AUC, t1/2, and MRT. Additionally, the apparent terminal-phase terminal half-life was calculated. The close proportionality of AUC and Cmax was explored.

[1] = 10 mg, 10 mg, read-out: Plasma concentration, Median
[2] = 25 mg, 25 mg, read-out: Plasma concentration, Geometric Mean
[3] = 25 mg, 25 mg, read-out: Plasma concentration, Mean
[4] = 25 mg, 25 mg, read-out: Plasma concentration, Median
[5] = 50 mg, 50 mg, read-out: Plasma concentration, Geometric Mean
[6] = 50 mg, 50 mg, read-out: Plasma concentration, Mean
[7] = 50 mg, 50 mg, read-out: Plasma concentration, Median

Molecule Cn1cc(S(=O)(=O)[C@@](C)(F)C2CCN(C(=O)Nc3ccon3)CC2)c(C(F)F)n1 [Compound I, (R)-4-(1-((3-(difluoromethyl)-1-methyl-1H-pyrazol-4-yl)sulfonyl)-1-fluoroethyl)-N-(isoxazol-3-yl)piperidine-1-carboxamide] has a concentration at 48 h [1] of 15.4 ng/mL, a concentration at 72 h (10 mg, 10 mg, read-out: Plasma concentration, Geometric Mean) of 4.5 ng/mL and a concentration at 72 h (10 mg, 10 mg, read-out: Plasma concentration, Mean) of 4.93 ng/mL. The concentration at 72 h [1] was 4.01 ng/mL, the AUC(0-t) (10 mg, read-out: AUC0-24, Geometric Mean) was 2120 ng·h/mL and the AUC(0-t) (10 mg, read-out: AUC0-24, Mean) was 2140 ng·h/mL. For the same molecule, the AUC(0-t) (10 mg, read-out: AUC0-24, Median) was 2250 ng·h/mL, the AUC(0-t) (10 mg, read-out: AUC0-48, Geometric Mean) was 2980 ng·h/mL and the AUC(0-t) (10 mg, read-out: AUC0-48, Mean) was 3030 ng·h/mL. The AUC(0-t) (10 mg, read-out: AUC0-48, Median) was 3190 ng·h/mL, the AUC(0-t) (10 mg, read-out: AUC0-last, Geometric Mean) was 3280 ng·h/mL and the AUC(0-t) (10 mg, read-out: AUC0-last, Mean) was 3350 ng·h/mL. It also gave an AUC(0-t) (10 mg, read-out: AUC0-last, Median) of 3420 ng·h/mL, an AUC(0-inf) (10 mg, read-out: AUC0-∞, Geometric Mean) of 3350 ng·h/mL and an AUC(0-inf) (10 mg, read-out: AUC0-∞, Mean) of 3410 ng·h/mL. It also gave an AUC(0-inf) (10 mg, read-out: AUC0-∞, Median) of 3480 ng·h/mL, a Cmax (10 mg, read-out: Cmax, Geometric Mean) of 138 ng/mL and a Cmax (10 mg, read-out: Cmax, Mean) of 139 ng/mL. The Cmax (10 mg, read-out: Cmax, Median) was 146 ng/mL, the half-life (10 mg, read-out: Half-Life Lambda Z, Geometric Mean (converted)) was 794 min and the half-life (10 mg, read-out: Half-Life Lambda Z, Mean (converted)) was 802 min. For the same molecule, the half-life (10 mg, read-out: Half-Life Lambda Z, Median (converted)) was 772 min, the MRT (10 mg, read-out: Mean Residence Time, Geometric Mean) was 21.1 h and the MRT (10 mg, read-out: Mean Residence Time, Mean) was 21.2 h. The MRT (10 mg, read-out: Mean Residence Time, Median) was 20.1 h, the Tmax (10 mg, read-out: Tmax, Geometric Mean) was 4.8 h and the Tmax (10 mg, read-out: Tmax, Mean) was 4.85 h. For the same molecule, the Tmax (10 mg, read-out: Tmax, Median) was 5 h, the Vd/F (10 mg, read-out: Vz/F, Geometric Mean) was 57.1 L and the Vd/F (10 mg, read-out: Vz/F, Mean) was 58.5 L. For the same molecule, the Vd/F (10 mg, read-out: Vz/F, Median) was 55.8 L, the concentration at 6 h [2] was 281 ng/mL and the concentration at 6 h [3] was 286 ng/mL. The concentration at 6 h [4] was 286 ng/mL, the concentration at 12 h [2] was 205 ng/mL and the concentration at 12 h [3] was 211 ng/mL. The concentration at 12 h [4] was 223 ng/mL, the concentration at 24 h [2] was 114 ng/mL and the concentration at 24 h [3] was 118 ng/mL. The concentration at 24 h [4] was 124 ng/mL, the concentration at 48 h [2] was 33.3 ng/mL and the concentration at 48 h [3] was 35.8 ng/mL. For the same molecule, the concentration at 48 h [4] was 35.5 ng/mL, the concentration at 72 h [2] was 8.4 ng/mL and the concentration at 72 h [3] was 9.78 ng/mL. For the same molecule, the concentration at 72 h [4] was 8.51 ng/mL, the AUC(0-t) (25 mg, read-out: AUC0-24, Geometric Mean) was 4550 ng·h/mL and the AUC(0-t) (25 mg, read-out: AUC0-24, Mean) was 4650 ng·h/mL. For the same molecule, the AUC(0-t) (25 mg, read-out: AUC0-24, Median) was 4850 ng·h/mL, the AUC(0-t) (25 mg, read-out: AUC0-48, Geometric Mean) was 6320 ng·h/mL and the AUC(0-t) (25 mg, read-out: AUC0-48, Mean) was 6500 ng·h/mL. The AUC(0-t) (25 mg, read-out: AUC0-48, Median) was 6890 ng·h/mL, the AUC(0-t) (25 mg, read-out: AUC0-last, Geometric Mean) was 6920 ng·h/mL and the AUC(0-t) (25 mg, read-out: AUC0-last, Mean) was 7160 ng·h/mL. It also gave an AUC(0-t) (25 mg, read-out: AUC0-last, Median) of 7420 ng·h/mL, an AUC(0-inf) (25 mg, read-out: AUC0-∞, Geometric Mean) of 7050 ng·h/mL and an AUC(0-inf) (25 mg, read-out: AUC0-∞, Mean) of 7290 ng·h/mL. For the same molecule, the AUC(0-inf) (25 mg, read-out: AUC0-∞, Median) was 7570 ng·h/mL, the Cmax (25 mg, read-out: Cmax, Geometric Mean) was 298 ng/mL and the Cmax (25 mg, read-out: Cmax, Mean) was 304 ng/mL. It also gave a Cmax (25 mg, read-out: Cmax, Median) of 313 ng/mL, a half-life (25 mg, read-out: Half-Life Lambda Z, Geometric Mean (converted)) of 788 min and a half-life (25 mg, read-out: Half-Life Lambda Z, Mean (converted)) of 797 min. For the same molecule, the half-life (25 mg, read-out: Half-Life Lambda Z, Median (converted)) was 761 min, the MRT (25 mg, read-out: Mean Residence Time, Geometric Mean) was 20.6 h and the MRT (25 mg, read-out: Mean Residence Time, Mean) was 20.8 h. For the same molecule, the MRT (25 mg, read-out: Mean Residence Time, Median) was 20.1 h, the Tmax (25 mg, read-out: Tmax, Geometric Mean) was 4.64 h and the Tmax (25 mg, read-out: Tmax, Mean) was 4.67 h. For the same molecule, the Tmax (25 mg, read-out: Tmax, Median) was 5 h, the Vd/F (25 mg, read-out: Vz/F, Geometric Mean) was 67.3 L and the Vd/F (25 mg, read-out: Vz/F, Mean) was 68.6 L. For the same molecule, the Vd/F (25 mg, read-out: Vz/F, Median) was 66.5 L, the concentration at 6 h [5] was 424 ng/mL and the concentration at 6 h [6] was 431 ng/mL. The concentration at 6 h [7] was 420 ng/mL, the concentration at 12 h [5] was 317 ng/mL and the concentration at 12 h [6] was 322 ng/mL. The concentration at 12 h [7] was 297 ng/mL, the concentration at 24 h [5] was 175 ng/mL and the concentration at 24 h [6] was 178 ng/mL. It also gave a concentration at 24 h [7] of 174 ng/mL, a concentration at 48 h [5] of 49.5 ng/mL and a concentration at 48 h [6] of 51.9 ng/mL. The concentration at 48 h [7] was 57.4 ng/mL, the concentration at 72 h [5] was 13.5 ng/mL and the concentration at 72 h [6] was 15.2 ng/mL. The concentration at 72 h [7] was 18.8 ng/mL, the AUC(0-t) (50 mg, read-out: AUC0-24, Geometric Mean) was 7210 ng·h/mL and the AUC(0-t) (50 mg, read-out: AUC0-24, Mean) was 7300 ng·h/mL. It also gave an AUC(0-t) (50 mg, read-out: AUC0-24, Median) of 6730 ng·h/mL, an AUC(0-t) (50 mg, read-out: AUC0-48, Geometric Mean) of 9930 ng·h/mL and an AUC(0-t) (50 mg, read-out: AUC0-48, Mean) of 10100 ng·h/mL. The AUC(0-t) (50 mg, read-out: AUC0-48, Median) was 9500 ng·h/mL, the AUC(0-t) (50 mg, read-out: AUC0-last, Geometric Mean) was 11100 ng·h/mL and the AUC(0-t) (50 mg, read-out: AUC0-last, Mean) was 11200 ng·h/mL. It also gave an AUC(0-t) (50 mg, read-out: AUC0-last, Median) of 11200 ng·h/mL, an AUC(0-inf) (50 mg, read-out: AUC0-∞, Geometric Mean) of 11200 ng·h/mL and an AUC(0-inf) (50 mg, read-out: AUC0-∞, Mean) of 11300 ng·h/mL. The AUC(0-inf) (50 mg, read-out: AUC0-∞, Median) was 11200 ng·h/mL, the Cmax (50 mg, read-out: Cmax, Geometric Mean) was 490 ng/mL and the Cmax (50 mg, read-out: Cmax, Mean) was 500 ng/mL. It also gave a Cmax (50 mg, read-out: Cmax, Median) of 470 ng/mL, a half-life (50 mg, read-out: Half-Life Lambda Z, Geometric Mean (converted)) of 805 min and a half-life (50 mg, read-out: Half-Life Lambda Z, Mean (converted)) of 817 min. For the same molecule, the half-life (50 mg, read-out: Half-Life Lambda Z, Median (converted)) was 829 min, the MRT (50 mg, read-out: Mean Residence Time, Geometric Mean) was 20.8 h and the MRT (50 mg, read-out: Mean Residence Time, Mean) was 21 h. For the same molecule, the MRT (50 mg, read-out: Mean Residence Time, Median) was 21.5 h, the Tmax (50 mg, read-out: Tmax, Geometric Mean) was 4.66 h and the Tmax (50 mg, read-out: Tmax, Mean) was 4.69 h. It also gave a Tmax (50 mg, read-out: Tmax, Median) of 5 h and a Vd/F (50 mg, read-out: Vz/F, Geometric Mean) of 86.6 L.
